# Test results from the supplement of paper PMC10307832.
# What was measured:
# Assay in all cases: relative viability (nuclei count vs DMSO), 5 days (fraction); higher = more cells survive
# NCI-H1915 = test system: NCI-H1915
# Method in brief: (§1)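 Medians of duplicate plates are given as relative viability. That measure is the nuclei count in treated wells divided by the count in vehicle wells. Counts were taken on 4× images of lung cancer cell lines in 1536-well plates, 5 days after pin-tool dosing the day after seeding with one drug alone or a fixed anchor-drug dose plus five library-drug doses (not always all listed) in √10 steps.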
# NCI-H522 = test system: NCI-H522
# Method in brief: as §1
# NCI-H1792 = test system: NCI-H1792
# Method in brief: as §1
# NCI-H661 = test system: NCI-H661
# Method in brief: as §1
# PC-3 [JPC-3] = test system: PC-3 [JPC-3]
# Method in brief: as §1
# LCLC-97TM1 = test system: LCLC-97TM1
# Method in brief: as §1
# NCI-H441 = test system: NCI-H441
# Method in brief: as §1
# NCI-H23 = test system: NCI-H23
# Method in brief: as §1
# SK-LU-1 = test system: SK-LU-1
# Method in brief: as §1
# NCI-H647 = test system: NCI-H647
# Method in brief: as §1
# NCI-H1975 = test system: NCI-H1975
# Method in brief: as §1
# NCI-H1666 = test system: NCI-H1666
# Method in brief: as §1
smiles,measurement,setting,value
Cc1cn(-c2cc(NC(=O)c3ccc(C)c(Nc4nccc(-c5cccnc5)n4)c3)cc(C(F)(F)F)c2)cn1 [Nilotinib] + COc1cccc2cc(-c3nc([C@H]4CC[C@H](C(=O)O)CC4)n4ncnc(N)c34)[nH]c12 [OSI-027] (partner 0.5 µM),relative viability,NCI-H1915; first compound 0.003162 µM,0.659
same,relative viability,NCI-H1915; first compound 0.01 µM,0.61
same,relative viability,NCI-H1915; first compound 0.03162 µM,0.567
same,relative viability,NCI-H1915; first compound 0.1 µM,0.338
same,relative viability,NCI-H522; first compound 0.001 µM,0.67
same,relative viability,NCI-H522; first compound 0.003162 µM,0.648
same,relative viability,NCI-H522; first compound 0.01 µM,0.754
same,relative viability,NCI-H522; first compound 0.03162 µM,0.665
same,relative viability,NCI-H522; first compound 0.1 µM,0.61
same,relative viability,NCI-H1792; first compound 0.001 µM,0.503
same,relative viability,NCI-H1792; first compound 0.003162 µM,0.473
same,relative viability,NCI-H1792; first compound 0.01 µM,0.667
same,relative viability,NCI-H1792; first compound 0.1 µM,0.555
same,relative viability,NCI-H661; first compound 0.001 µM,0.672
same,relative viability,NCI-H661; first compound 0.003162 µM,0.69
same,relative viability,NCI-H661; first compound 0.03162 µM,0.538
same,relative viability,NCI-H661; first compound 0.1 µM,0.634
same,relative viability,PC-3 [JPC-3]; first compound 0.001 µM,0.702
same,relative viability,PC-3 [JPC-3]; first compound 0.003162 µM,0.838
same,relative viability,PC-3 [JPC-3]; first compound 0.01 µM,0.785
same,relative viability,PC-3 [JPC-3]; first compound 0.03162 µM,0.703
same,relative viability,PC-3 [JPC-3]; first compound 0.1 µM,0.475
same,relative viability,LCLC-97TM1; first compound 0.001 µM,0.552
same,relative viability,LCLC-97TM1; first compound 0.003162 µM,0.559
same,relative viability,LCLC-97TM1; first compound 0.01 µM,0.479
same,relative viability,LCLC-97TM1; first compound 0.03162 µM,0.432
same,relative viability,LCLC-97TM1; first compound 0.1 µM,0.467
same,relative viability,NCI-H441; first compound 0.001 µM,0.524
same,relative viability,NCI-H441; first compound 0.003162 µM,0.743
same,relative viability,NCI-H441; first compound 0.01 µM,0.52
same,relative viability,NCI-H441; first compound 0.03162 µM,0.499
same,relative viability,NCI-H441; first compound 0.1 µM,0.483
same,relative viability,NCI-H23; first compound 0.001 µM,0.58
same,relative viability,NCI-H23; first compound 0.003162 µM,0.418
same,relative viability,NCI-H23; first compound 0.01 µM,0.418
same,relative viability,NCI-H23; first compound 0.03162 µM,0.361
same,relative viability,NCI-H23; first compound 0.1 µM,0.412
same,relative viability,SK-LU-1; first compound 0.001 µM,0.313
same,relative viability,SK-LU-1; first compound 0.003162 µM,0.322
same,relative viability,SK-LU-1; first compound 0.01 µM,0.302
same,relative viability,SK-LU-1; first compound 0.03162 µM,0.258
same,relative viability,SK-LU-1; first compound 0.1 µM,0.265
same,relative viability,NCI-H647; first compound 0.001 µM,0.638
same,relative viability,NCI-H647; first compound 0.003162 µM,0.749
same,relative viability,NCI-H647; first compound 0.01 µM,0.762
same,relative viability,NCI-H647; first compound 0.03162 µM,0.355
same,relative viability,NCI-H647; first compound 0.1 µM,0.644
same,relative viability,NCI-H1975; first compound 0.001 µM,0.598
same,relative viability,NCI-H1975; first compound 0.003162 µM,0.53
same,relative viability,NCI-H1975; first compound 0.01 µM,0.149
same,relative viability,NCI-H1975; first compound 0.03162 µM,0.409
same,relative viability,NCI-H1975; first compound 0.1 µM,0.32
same,relative viability,NCI-H1666; first compound 0.001 µM,0.823
same,relative viability,NCI-H1666; first compound 0.003162 µM,0.846
same,relative viability,NCI-H1666; first compound 0.01 µM,0.879
same,relative viability,NCI-H1666; first compound 0.03162 µM,0.753
same,relative viability,NCI-H1666; first compound 0.1 µM,0.899
